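In this assay, cells in 96-well plates receive the compound at five concentrations for 48 hours. Endpoints are linearly interpolated between the surrounding concentrations. GI50 = concentration required for 50% inhibition of growth. TGI: concentration producing complete growth inhibition.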
Columns and labels:
Assay in all cases: NCI anticancer screen, dose series, 48 h
UACC-62 melanoma = test system: UACC-62 melanoma
HCT-15 colon = test system: HCT-15 colon
CAKI-1 renal = test system: CAKI-1 renal
KM12 colon = test system: KM12 colon
ACHN renal = test system: ACHN renal
MALME-3M melanoma = test system: MALME-3M melanoma
OVCAR-3 ovarian = test system: OVCAR-3 ovarian
SW-620 colon = test system: SW-620 colon
NCI-H460 lung = test system: NCI-H460 lung
RPMI-8226 leukemia = test system: RPMI-8226 leukemia

| Compound | TGI (UACC-62 melanoma) [µM] | TGI (HCT-15 colon) [µM] | TGI (CAKI-1 renal) [µM] | TGI (KM12 colon) [µM] | TGI (ACHN renal) [µM] | TGI (MALME-3M melanoma) [µM] | TGI (OVCAR-3 ovarian) [µM] | TGI (SW-620 colon) [µM] | TGI (NCI-H460 lung) [µM] | GI50 (UACC-62 melanoma) [µM] | GI50 (HCT-15 colon) [µM] | GI50 (CAKI-1 renal) [µM] | GI50 (KM12 colon) [µM] | GI50 (ACHN renal) [µM] | GI50 (MALME-3M melanoma) [µM] | GI50 (RPMI-8226 leukemia) [µM] | TGI (RPMI-8226 leukemia) [µM] | GI50 (SW-620 colon) [µM] | GI50 (NCI-H460 lung) [µM] | GI50 (OVCAR-3 ovarian) [µM] |
| --- | --- | --- | --- | --- | --- | --- | --- | --- | --- | --- | --- | --- | --- | --- | --- | --- | --- | --- | --- | --- |
| O=C1NC2(CCCCC2)C2=C1CCCCC2 | > 100 | > 100 | > 100 | > 100 | > 100 | > 100 | > 100 | > 100 | > 100 |  |  |  |  |  |  |  |  |  |  |  |
| COc1ccc(S(=O)(=O)NCCCNc2nccc(-c3c(-c4ccc(F)cc4)nc4sccn34)n2)cc1 | 74.8 | > 100 | > 100 | > 100 | > 100 | > 100 |  | > 100 | > 100 | 3.38 | 3.6 | 6.72 | 5.07 | 2.73 | 5.78 | 6.25 | 58.2 | 24 | 4.33 |  |
| O=C(/C=C/N1CCN(c2cccc(Cl)c2)CC1)c1ccc(Cl)cc1 | 83.5 | > 100 | 71.1 | 69.8 | > 100 | 26.4 | 73.7 | 99.3 | > 100 | 27.3 | 31 | 28.8 | 27.1 | 44.9 | 4.89 | 18.3 | 50.7 | 30 | 33.6 | 24.1 |
| NC(=O)NC(=O)C1CCC(=O)N1S(=O)(=O)c1ccc(Cl)cc1 (stereo not drawn) | > 100 | > 100 | > 100 | > 100 | > 100 | > 100 | > 100 | > 100 | > 100 |  |  |  |  |  |  |  | > 100 |  |  |  |
| CCCNc1ncnc2c1cnn2C | > 100 | > 100 | > 100 | > 100 | > 100 | > 100 | > 100 | > 100 | > 100 |  |  |  |  |  |  |  | > 100 |  |  |  |
| O=C(Nc1cccc(C(F)(F)F)c1)Nc1cc(S(=O)(=O)NC2CC2)ccc1-c1ccsc1 | 13.8 | 12.8 | 18.6 | 16.1 | 3.61 | 11.1 | 14.9 | 18.5 | 11.6 | 2.93 | 3.27 | 4.47 | 4.46 | 1.83 | 3.39 | 2.57 | 8.22 | 4.45 | 3.4 | 4.02 |
| COC(=O)N/N=C(\c1nc2ccc(Cl)cc2[nH]c1=O)C(O)c1ccc([N+](=O)[O-])cc1 (stereo not drawn) | > 100 | > 100 | > 100 | > 100 |  | > 100 | > 100 | > 100 | > 100 |  |  |  |  |  |  |  | > 100 |  |  |  |
| CC1CC2C(=O)N(c3ccccc3)C(=O)C2c2[nH]c3ccccc3c21 (stereo not drawn) | > 100 | > 100 |  | > 100 | > 100 | > 100 | > 100 | > 100 | > 100 |  |  |  |  |  |  |  | > 100 |  |  |  |
| Cc1cc2c(=O)cc(-c3ccncc3)oc2c(C(=O)O)c1C | > 100 | > 100 |  |  | > 100 | > 100 | > 100 | > 100 | > 100 |  |  |  |  |  |  |  | > 100 |  |  |  |

— PubChem BioAssay (NCI)
